Reference: PubChem BioAssay AID1963423 (Molecular Pharmacology Branch, DTP, NCI, 2024)
Blank lines part the entries; values can stand above or below the compound they belong to.

Test system: 439559-082-T-J2-PDC complex spheroid growth
Assay: Anticancer human tumor 439559-082-T-J2-PDC patient-derived colon adenocarcinoma cell line growth inhibition [Asc]
Details: for IC50: curve of first compound; for viability, T/C: stronger effect = lower value
Procedure, shortened: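 Stromal components (HUVEC and hMSC) are co-assembled with the cancer cells into multicellular spheroids. Drugs are then added singly or paired, at concentrations falling by half-log increments from a clinically achievable maximum, capped at 10 microM without known Cmax.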

[1] = second compound 0.1 µM, first compound 0.00316 µM
[2] = second compound 0.1 µM, first compound 0.01 µM
[3] = second compound 0.1 µM, first compound 0.0316 µM
[4] = second compound 0.1 µM, first compound 0.1 µM
[5] = second compound 0.1 µM, first compound 0.316 µM
[6] = second compound 0.1 µM, first compound 1 µM
[7] = second compound 0.316 µM, first compound 0.00316 µM
[8] = second compound 0.316 µM, first compound 0.01 µM
[9] = second compound 0.316 µM, first compound 0.0316 µM
[10] = second compound 0.316 µM, first compound 0.1 µM
[11] = second compound 0.316 µM, first compound 0.316 µM
[12] = second compound 0.316 µM, first compound 1 µM
[13] = second compound 1 µM, first compound 0.00316 µM
[14] = second compound 1 µM, first compound 0.01 µM
[15] = second compound 1 µM, first compound 0.0316 µM
[16] = second compound 1 µM, first compound 0.1 µM
[17] = second compound 1 µM, first compound 0.316 µM
[18] = second compound 1 µM, first compound 1 µM
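Further: spheroids exposed to agents for 7 days starting day 3 after seeding.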
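Wherever viability, T/C is given: percent of DMSO vehicle control viability with 100% = vehicle.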

IC50 (second compound 0.03 µM): > 100 nM
IC50 (second compound 0.0949 µM): > 100 nM
IC50 (second compound 0.3 µM): > 100 nM
IC50 (second compound 0.949 µM): > 100 nM
IC50 (second compound 3 µM): > 100 nM
SMILES: Cn1ncnc1[C@H]1c2n[nH]c(=O)c3cc(F)cc(c23)N[C@@H]1c1ccc(F)cc1 + CCN1C(C(=O)NC23CCC(C(=O)O)(CC2)CC3)C(c2cccc(Cl)c2F)C2(C(=O)Nc3cc(Cl)ccc32)C12CCCCC2
viability, T/C (second compound 0.03 µM, first compound 0.000316 µM): 106%
viability, T/C (second compound 0.03 µM, first compound 0.001 µM): 109%
viability, T/C (second compound 0.03 µM, first compound 0.00316 µM): 103%
viability, T/C (second compound 0.03 µM, first compound 0.01 µM): 100%
viability, T/C (second compound 0.03 µM, first compound 0.0316 µM): 101%
viability, T/C (second compound 0.03 µM, first compound 0.1 µM): 95.3%
viability, T/C (second compound 0.0949 µM, first compound 0.000316 µM): 103%
viability, T/C (second compound 0.0949 µM, first compound 0.001 µM): 104%
viability, T/C (second compound 0.0949 µM, first compound 0.00316 µM): 106%
viability, T/C (second compound 0.0949 µM, first compound 0.01 µM): 83.4%
viability, T/C (second compound 0.0949 µM, first compound 0.0316 µM): 94.6%
viability, T/C (second compound 0.0949 µM, first compound 0.1 µM): 96.6%
viability, T/C (second compound 0.3 µM, first compound 0.000316 µM): 98.8%
viability, T/C (second compound 0.3 µM, first compound 0.001 µM): 113%
viability, T/C (second compound 0.3 µM, first compound 0.00316 µM): 109%
viability, T/C (second compound 0.3 µM, first compound 0.01 µM): 86.2%
viability, T/C (second compound 0.3 µM, first compound 0.0316 µM): 96.2%
viability, T/C (second compound 0.3 µM, first compound 0.1 µM): 101%
viability, T/C (second compound 0.949 µM, first compound 0.000316 µM): 107%
viability, T/C (second compound 0.949 µM, first compound 0.001 µM): 111%
viability, T/C (second compound 0.949 µM, first compound 0.00316 µM): 108%
viability, T/C (second compound 0.949 µM, first compound 0.01 µM): 99%
viability, T/C (second compound 0.949 µM, first compound 0.0316 µM): 88.3%
viability, T/C (second compound 0.949 µM, first compound 0.1 µM): 103%
viability, T/C (second compound 3 µM, first compound 0.000316 µM): 89%
viability, T/C (second compound 3 µM, first compound 0.001 µM): 94.7%
viability, T/C (second compound 3 µM, first compound 0.00316 µM): 101%
viability, T/C (second compound 3 µM, first compound 0.01 µM): 86.6%
viability, T/C (second compound 3 µM, first compound 0.0316 µM): 84.4%
viability, T/C (second compound 3 µM, first compound 0.1 µM): 91.6%

IC50 (second compound 0.00316 µM): > 1000 nM
IC50 (second compound 0.01 µM): > 1000 nM
IC50 (second compound 0.0316 µM): > 1000 nM
IC50 (second compound 0.1 µM): > 1000 nM
IC50 (second compound 0.316 µM): > 1000 nM
IC50 (second compound 1 µM): > 1000 nM
SMILES: CCN1CCN(Cc2ccc(Nc3ncc(F)c(-c4cc(F)c5nc(C)n(C(C)C)c5c4)n3)nc2)CC1 + CNC(C)C(=O)NC1CN(S(=O)(=O)c2cccc(S(=O)(=O)N3CCC4CCC(C(=O)NC(c5ccccc5)c5ccccc5)N4C(=O)C(NC(=O)C(C)NC)C3)c2)CCC2CCC(C(=O)NC(c3ccccc3)c3ccccc3)N2C1=O
viability, T/C (second compound 0.00316 µM, first compound 0.00316 µM): 99.5%
viability, T/C (second compound 0.00316 µM, first compound 0.01 µM): 92.6%
viability, T/C (second compound 0.00316 µM, first compound 0.0316 µM): 91%
viability, T/C (second compound 0.00316 µM, first compound 0.1 µM): 94.1%
viability, T/C (second compound 0.00316 µM, first compound 0.316 µM): 85.8%
viability, T/C (second compound 0.00316 µM, first compound 1 µM): 66.9%
viability, T/C (second compound 0.01 µM, first compound 0.00316 µM): 107%
viability, T/C (second compound 0.01 µM, first compound 0.01 µM): 101%
viability, T/C (second compound 0.01 µM, first compound 0.0316 µM): 87.3%
viability, T/C (second compound 0.01 µM, first compound 0.1 µM): 95.4%
viability, T/C (second compound 0.01 µM, first compound 0.316 µM): 88%
viability, T/C (second compound 0.01 µM, first compound 1 µM): 73.1%
viability, T/C (second compound 0.0316 µM, first compound 0.00316 µM): 95.8%
viability, T/C (second compound 0.0316 µM, first compound 0.01 µM): 111%
viability, T/C (second compound 0.0316 µM, first compound 0.0316 µM): 89.6%
viability, T/C (second compound 0.0316 µM, first compound 0.1 µM): 96.8%
viability, T/C (second compound 0.0316 µM, first compound 0.316 µM): 94.5%
viability, T/C (second compound 0.0316 µM, first compound 1 µM): 78.5%
viability, T/C [1]: 103%
viability, T/C [2]: 87.9%
viability, T/C [3]: 99%
viability, T/C [4]: 94.6%
viability, T/C [5]: 95.5%
viability, T/C [6]: 64.2%
viability, T/C [7]: 91.6%
viability, T/C [8]: 84.2%
viability, T/C [9]: 86.8%
viability, T/C [10]: 75.5%
viability, T/C [11]: 82%
viability, T/C [12]: 65.5%
viability, T/C [13]: 88.9%
viability, T/C [14]: 77.3%
viability, T/C [15]: 69.4%
viability, T/C [16]: 69.2%
viability, T/C [17]: 62.1%
viability, T/C [18]: 48.9%

IC50 (second compound 0.1 µM): > 1000 nM
IC50 (second compound 0.316 µM): > 1000 nM
IC50 (second compound 1 µM): > 1000 nM
IC50 (second compound 3.16 µM): > 1000 nM
IC50 (second compound 10 µM): > 1000 nM
SMILES: CNC(C)C(=O)NC1CN(S(=O)(=O)c2cccc(S(=O)(=O)N3CCC4CCC(C(=O)NC(c5ccccc5)c5ccccc5)N4C(=O)C(NC(=O)C(C)NC)C3)c2)CCC2CCC(C(=O)NC(c3ccccc3)c3ccccc3)N2C1=O (configuration not stated) + Cc1c(S(C)(=O)=O)c(-c2cc(F)cc(N3CCN(c4ccc(NS(=O)(=O)c5ccc(NC(CCN6CCC(C(=O)OCCCP(=O)(O)O)CC6)CSc6ccccc6)c(S(=O)(=O)C(F)(F)F)c5)cc4)CC3)c2)c(-c2ccc(Cl)cc2)n1C(C)C
viability, T/C [1]: 102%
viability, T/C [2]: 111%
viability, T/C [3]: 110%
viability, T/C [4]: 88.2%
viability, T/C [5]: 88%
viability, T/C [6]: 86.3%
viability, T/C [7]: 97.9%
viability, T/C [8]: 105%
viability, T/C [9]: 108%
viability, T/C [10]: 85%
viability, T/C [11]: 83%
viability, T/C [12]: 79.8%
viability, T/C [13]: 97.5%
viability, T/C [14]: 103%
viability, T/C [15]: 104%
viability, T/C [16]: 87.1%
viability, T/C [17]: 93.9%
viability, T/C [18]: 80%
viability, T/C (second compound 3.16 µM, first compound 0.00316 µM): 91.2%
viability, T/C (second compound 3.16 µM, first compound 0.01 µM): 99.2%
viability, T/C (second compound 3.16 µM, first compound 0.0316 µM): 102%
viability, T/C (second compound 3.16 µM, first compound 0.1 µM): 71%
viability, T/C (second compound 3.16 µM, first compound 0.316 µM): 84%
viability, T/C (second compound 3.16 µM, first compound 1 µM): 69.7%
viability, T/C (second compound 10 µM, first compound 0.00316 µM): 75.5%
viability, T/C (second compound 10 µM, first compound 0.01 µM): 80.4%
viability, T/C (second compound 10 µM, first compound 0.0316 µM): 90.6%
viability, T/C (second compound 10 µM, first compound 0.1 µM): 72.8%
viability, T/C (second compound 10 µM, first compound 0.316 µM): 64.7%
viability, T/C (second compound 10 µM, first compound 1 µM): 66.1%
